# Measurements: patent US8653041B2, “Antibacterial aminoglycoside analogs” (Achaogen, Inc., priority 2010, dated 2014)
# Read-outs that look alike come from different tables or passages of the source.
# Legend:
# Pseudomonas aeruginosa = test: MIC, CLSI broth microdilution, Pseudomonas aeruginosa panel; type: cell-based; settings: Pseudomonas aeruginosa, read-out: MIC
# Description: (§1) Minimum inhibitory concentrations (MIC) were determined by reference Clinical and Laboratory Standards Institute (CLSI) broth microdilution methods per M7-A7 [2006]. Quality control ranges utilizing E. coli ATCC 25922, P. aeruginosa ATCC 27853 and S. aureus ATCC 29213, and interpretive criteria for comparator agents were as published in CLSI M100-S17 [2007]. Briefly, serial two-fold dilutions of the test compounds were prepared at 2× concentration in Mueller Hinton Broth. The compound dilutions were mixed in 96-well assay plates in a 1:1 ratio with bacterial inoculum. The inoculum was prepared by suspension of a colony from an agar plate that was prepared the previous day. Bacteria were suspended in sterile saline and added to each assay plate to obtain a final concentration of 5×10^5 CFU/mL. The plates were incubated at 35 C for 20 hours in ambient air.
# The MIC panel presented in Table 1 contains 27 isolates of Pseudomonas aeruginosa: strains 1-22 are clinical isolates from around the world collected between 2004-2007 which contain representative resistance mechanisms commonly found in Pseudomonas, such as the AAC(6′)-I, AAC(6′)-II, APH(3′)-IIb, ANT(2″)-I, and perm/efflux; strains 23-27 are susceptible.
# Acinetobacter baumannii = test: MIC, CLSI broth microdilution, Acinetobacter baumannii panel; type: cell-based; settings: Acinetobacter baumannii, read-out: MIC
# Description: as §1
# The MIC panel presented in Table 2 contains 29 isolates of Acinetobacter baumannii: strains 1-24 are clinical isolates from around the world collected between 2004-2007 which contain representative resistance mechanisms commonly found in Acinetobacter baumannii, such as AAC(3)-I and II, AAC(6′)-I, ANT(2″)-I, APH(3′)-VI, and perm/efflux; strains 25-29 are susceptible.
structure (smiles),measurement,setting,value
"NC[C@H]1O[C@H](O[C@H]2[C@H](O)[C@@H](O[C@H]3O[C@H](CO)[C@@H](O)[C@H](N)[C@H]3O)[C@H](N)C[C@@H]2N)[C@H](N)C[C@@H]1O [TOB, tobramycin]",MIC,Pseudomonas aeruginosa; P. aeruginosa clinical strain 1 (resistant clinical isolate),≥ 32 µg/mL
same,MIC,Pseudomonas aeruginosa; P. aeruginosa clinical strain 2 (resistant clinical isolate),16 to 32 µg/mL
same,MIC,Pseudomonas aeruginosa; P. aeruginosa clinical strain 3 (resistant clinical isolate),≥ 32 µg/mL
same,MIC,Pseudomonas aeruginosa; P. aeruginosa clinical strain 4 (resistant clinical isolate),≥ 32 µg/mL
same,MIC,Pseudomonas aeruginosa; P. aeruginosa clinical strain 5 (resistant clinical isolate),≥ 32 µg/mL
same,MIC,Pseudomonas aeruginosa; P. aeruginosa clinical strain 6 (resistant clinical isolate),≥ 32 µg/mL
same,MIC,Pseudomonas aeruginosa; P. aeruginosa clinical strain 7 (resistant clinical isolate),≥ 32 µg/mL
same,MIC,Pseudomonas aeruginosa; P. aeruginosa clinical strain 8 (resistant clinical isolate),≥ 32 µg/mL
same,MIC,Pseudomonas aeruginosa; P. aeruginosa clinical strain 9 (resistant clinical isolate),≥ 32 µg/mL
same,MIC,Pseudomonas aeruginosa; P. aeruginosa clinical strain 10 (resistant clinical isolate),≥ 32 µg/mL
same,MIC,Pseudomonas aeruginosa; P. aeruginosa clinical strain 11 (resistant clinical isolate),8 to 16 µg/mL
same,MIC,Pseudomonas aeruginosa; P. aeruginosa clinical strain 12 (resistant clinical isolate),≥ 32 µg/mL
same,MIC,Pseudomonas aeruginosa; P. aeruginosa clinical strain 13 (resistant clinical isolate),≥ 32 µg/mL
same,MIC,Pseudomonas aeruginosa; P. aeruginosa clinical strain 14 (resistant clinical isolate),≥ 32 µg/mL
same,MIC,Pseudomonas aeruginosa; P. aeruginosa clinical strain 15 (resistant clinical isolate),≥ 32 µg/mL
same,MIC,Pseudomonas aeruginosa; P. aeruginosa clinical strain 16 (resistant clinical isolate),≥ 32 µg/mL
same,MIC,Pseudomonas aeruginosa; P. aeruginosa clinical strain 17 (resistant clinical isolate),≥ 32 µg/mL
same,MIC,Pseudomonas aeruginosa; P. aeruginosa clinical strain 18 (resistant clinical isolate),≥ 32 µg/mL
same,MIC,Pseudomonas aeruginosa; P. aeruginosa clinical strain 19 (resistant clinical isolate),≥ 32 µg/mL
same,MIC,Pseudomonas aeruginosa; P. aeruginosa clinical strain 20 (resistant clinical isolate),1 to 8 µg/mL
same,MIC,Pseudomonas aeruginosa; P. aeruginosa clinical strain 21 (resistant clinical isolate),≤ 1 µg/mL
same,MIC,Pseudomonas aeruginosa; P. aeruginosa clinical strain 22 (resistant clinical isolate),≤ 1 µg/mL
same,MIC,Pseudomonas aeruginosa; P. aeruginosa strain 23 (susceptible),≤ 1 µg/mL
same,MIC,Pseudomonas aeruginosa; P. aeruginosa strain 24 (susceptible),≤ 1 µg/mL
same,MIC,Pseudomonas aeruginosa; P. aeruginosa strain 25 (susceptible),≤ 1 µg/mL
same,MIC,Pseudomonas aeruginosa; P. aeruginosa strain 26 (susceptible),≤ 1 µg/mL
same,MIC,Pseudomonas aeruginosa; P. aeruginosa strain 27 (susceptible),1 to 8 µg/mL
same,MIC,Acinetobacter baumannii; A. baumannii clinical strain 1 (resistant clinical isolate),≥ 32 µg/mL
same,MIC,Acinetobacter baumannii; A. baumannii clinical strain 2 (resistant clinical isolate),≥ 32 µg/mL
same,MIC,Acinetobacter baumannii; A. baumannii clinical strain 3 (resistant clinical isolate),≥ 32 µg/mL
same,MIC,Acinetobacter baumannii; A. baumannii clinical strain 4 (resistant clinical isolate),≥ 32 µg/mL
same,MIC,Acinetobacter baumannii; A. baumannii clinical strain 5 (resistant clinical isolate),≥ 32 µg/mL
same,MIC,Acinetobacter baumannii; A. baumannii clinical strain 6 (resistant clinical isolate),≥ 32 µg/mL
same,MIC,Acinetobacter baumannii; A. baumannii clinical strain 7 (resistant clinical isolate),1 to 8 µg/mL
same,MIC,Acinetobacter baumannii; A. baumannii clinical strain 8 (resistant clinical isolate),≥ 32 µg/mL
same,MIC,Acinetobacter baumannii; A. baumannii clinical strain 9 (resistant clinical isolate),≥ 32 µg/mL
same,MIC,Acinetobacter baumannii; A. baumannii clinical strain 10 (resistant clinical isolate),≥ 32 µg/mL
same,MIC,Acinetobacter baumannii; A. baumannii clinical strain 11 (resistant clinical isolate),≥ 32 µg/mL
same,MIC,Acinetobacter baumannii; A. baumannii clinical strain 12 (resistant clinical isolate),16 to 32 µg/mL
same,MIC,Acinetobacter baumannii; A. baumannii clinical strain 13 (resistant clinical isolate),≤ 1 µg/mL
same,MIC,Acinetobacter baumannii; A. baumannii clinical strain 14 (resistant clinical isolate),≤ 1 µg/mL
same,MIC,Acinetobacter baumannii; A. baumannii clinical strain 15 (resistant clinical isolate),≤ 1 µg/mL
same,MIC,Acinetobacter baumannii; A. baumannii clinical strain 16 (resistant clinical isolate),1 to 8 µg/mL
same,MIC,Acinetobacter baumannii; A. baumannii clinical strain 17 (resistant clinical isolate),≤ 1 µg/mL
same,MIC,Acinetobacter baumannii; A. baumannii clinical strain 18 (resistant clinical isolate),1 to 8 µg/mL
same,MIC,Acinetobacter baumannii; A. baumannii clinical strain 19 (resistant clinical isolate),≤ 1 µg/mL
same,MIC,Acinetobacter baumannii; A. baumannii clinical strain 20 (resistant clinical isolate),1 to 8 µg/mL
same,MIC,Acinetobacter baumannii; A. baumannii clinical strain 21 (resistant clinical isolate),≥ 32 µg/mL
same,MIC,Acinetobacter baumannii; A. baumannii clinical strain 22 (resistant clinical isolate),≥ 32 µg/mL
same,MIC,Acinetobacter baumannii; A. baumannii clinical strain 23 (resistant clinical isolate),≥ 32 µg/mL
same,MIC,Acinetobacter baumannii; A. baumannii clinical strain 24 (resistant clinical isolate),≥ 32 µg/mL
same,MIC,Acinetobacter baumannii; A. baumannii strain 25 (susceptible),≤ 1 µg/mL
same,MIC,Acinetobacter baumannii; A. baumannii strain 26 (susceptible),≤ 1 µg/mL
same,MIC,Acinetobacter baumannii; A. baumannii strain 27 (susceptible),≤ 1 µg/mL
same,MIC,Acinetobacter baumannii; A. baumannii strain 28 (susceptible),≤ 1 µg/mL
same,MIC,Acinetobacter baumannii; A. baumannii strain 29 (susceptible),≤ 1 µg/mL
